Measurements: BigSolDB 2.1

O=C(O)c1ccccc1
Conditions	solubility (mole fraction)
in 2-(2-butoxyethoxy)ethanol, 296.15 K	0.285
in 2-(2-butoxyethoxy)ethanol, 305.15 K	0.304
in 2-(2-butoxyethoxy)ethanol, 309.65 K	0.314
in 2-(2-butoxyethoxy)ethanol, 311.15 K	0.329
in 2-(2-butoxyethoxy)ethanol, 317.15 K	0.356
in 2-(2-butoxyethoxy)ethanol, 321.15 K	0.377
in 2-(2-butoxyethoxy)ethanol, 326.15 K	0.409
in 2-(2-butoxyethoxy)ethanol, 329.65 K	0.431
in 2-(2-butoxyethoxy)ethanol, 334.15 K	0.458
in 2-(2-butoxyethoxy)ethanol, 336.15 K	0.472
in DMAc, 288.65 K	0.469
in DMAc, 293.35 K	0.472
in DMAc, 302.15 K	0.475
in DMAc, 308.65 K	0.483
in DMAc, 311.65 K	0.489
in DMAc, 315.15 K	0.496
in DMAc, 318.15 K	0.505
in DMAc, 320.65 K	0.515
in DMAc, 324.15 K	0.529
in DMAc, 329.15 K	0.548
in cyclohexanone, 286.15 K	0.174
in cyclohexanone, 288.95 K	0.181
in cyclohexanone, 294.15 K	0.197
in cyclohexanone, 299.15 K	0.221
in cyclohexanone, 303.65 K	0.242
in cyclohexanone, 307.95 K	0.265
in cyclohexanone, 316.15 K	0.29
in cyclohexanone, 319.15 K	0.315
in cyclohexanone, 322.15 K	0.337
in cyclohexanone, 326.15 K	0.362
in decalin, 296.15 K	0.0147
in decalin, 301.15 K	0.0163
in decalin, 306.25 K	0.0196
in decalin, 311.05 K	0.0249
in decalin, 318.05 K	0.0355
in decalin, 325.15 K	0.0495
in decalin, 329.25 K	0.0589
in decalin, 332.55 K	0.0687
in decalin, 337.05 K	0.0887
in decalin, 338.65 K	0.103
in diethylene glycol, 294.15 K	0.0746
in diethylene glycol, 298.15 K	0.0995
in diethylene glycol, 302.35 K	0.131
in diethylene glycol, 305.15 K	0.148
in diethylene glycol, 309.35 K	0.183
in diethylene glycol, 314.65 K	0.225
in diethylene glycol, 319.95 K	0.269
in diethylene glycol, 324.15 K	0.3
in diethylene glycol, 327.95 K	0.336
in diethylene glycol, 332.25 K	0.367
in ethylene glycol, 291.65 K	0.0449
in ethylene glycol, 298.15 K	0.0539
in ethylene glycol, 300.95 K	0.0604
in ethylene glycol, 303.15 K	0.0689
in ethylene glycol, 306.65 K	0.0823
in ethylene glycol, 310.15 K	0.097
in ethylene glycol, 314.15 K	0.112
in ethylene glycol, 320.15 K	0.14
in ethylene glycol, 324.15 K	0.155
in ethylene glycol, 330.65 K	0.185
in m-xylene, 296.15 K	0.0649
in m-xylene, 302.15 K	0.0823
in m-xylene, 306.15 K	0.0928
in m-xylene, 312.65 K	0.117
in m-xylene, 315.15 K	0.129
in m-xylene, 320.15 K	0.154
in m-xylene, 323.15 K	0.173
in m-xylene, 330.65 K	0.22
in m-xylene, 334.15 K	0.246
in m-xylene, 336.15 K	0.257
in n-octane, 313.15 K	0.024
in n-octane, 322.35 K	0.033
in n-octane, 325.15 K	0.0365
in n-octane, 329.15 K	0.0448
in n-octane, 334.15 K	0.0578
in n-octane, 338.35 K	0.0718
in n-octane, 342.65 K	0.0865
in n-octane, 345.15 K	0.0955
in n-octane, 348.15 K	0.11
in n-octane, 354.15 K	0.134
in o-xylene, 297.15 K	0.0655
in o-xylene, 300.15 K	0.0735
in o-xylene, 303.15 K	0.0853
in o-xylene, 308.65 K	0.101
in o-xylene, 311.15 K	0.115
in o-xylene, 316.15 K	0.139
in o-xylene, 321.15 K	0.162
in o-xylene, 325.15 K	0.189
in o-xylene, 332.15 K	0.218
in o-xylene, 334.15 K	0.239
in p-xylene, 295.15 K	0.0628
in p-xylene, 299.65 K	0.0743
in p-xylene, 302.15 K	0.0819
in p-xylene, 307.15 K	0.0953
in p-xylene, 311.45 K	0.115
in p-xylene, 320.65 K	0.148
in p-xylene, 323.15 K	0.169
in p-xylene, 326.95 K	0.191
in p-xylene, 331.15 K	0.218
in p-xylene, 335.15 K	0.244
in propionic acid, 291.15 K	0.146
in propionic acid, 294.65 K	0.149
in propionic acid, 300.15 K	0.171
in propionic acid, 304.45 K	0.19
in propionic acid, 308.15 K	0.213
in propionic acid, 314.15 K	0.235
in propionic acid, 317.15 K	0.251
in propionic acid, 322.15 K	0.271
in propionic acid, 325.15 K	0.293
in propionic acid, 330.15 K	0.332
in sulfolane, 305.15 K	0.122
in sulfolane, 312.15 K	0.132
in sulfolane, 314.15 K	0.138
in sulfolane, 318.65 K	0.156
in sulfolane, 325.15 K	0.192
in sulfolane, 329.15 K	0.216
in sulfolane, 333.65 K	0.245
in sulfolane, 338.15 K	0.282
in sulfolane, 343.15 K	0.315
in sulfolane, 345.15 K	0.33
